Source: paper PMC7857480 (The Journal of Biological Chemistry, 2020)

Target: FigA (Francisella tularensis, UniProt Q15EH0)
Settings: FigA alone; citrate, 2.25 mM ATP, 15 mM MgCl2, 50 mM HEPES pH 7.4, RT 2 h

Sequence of FigA (Q15EH0 1-639): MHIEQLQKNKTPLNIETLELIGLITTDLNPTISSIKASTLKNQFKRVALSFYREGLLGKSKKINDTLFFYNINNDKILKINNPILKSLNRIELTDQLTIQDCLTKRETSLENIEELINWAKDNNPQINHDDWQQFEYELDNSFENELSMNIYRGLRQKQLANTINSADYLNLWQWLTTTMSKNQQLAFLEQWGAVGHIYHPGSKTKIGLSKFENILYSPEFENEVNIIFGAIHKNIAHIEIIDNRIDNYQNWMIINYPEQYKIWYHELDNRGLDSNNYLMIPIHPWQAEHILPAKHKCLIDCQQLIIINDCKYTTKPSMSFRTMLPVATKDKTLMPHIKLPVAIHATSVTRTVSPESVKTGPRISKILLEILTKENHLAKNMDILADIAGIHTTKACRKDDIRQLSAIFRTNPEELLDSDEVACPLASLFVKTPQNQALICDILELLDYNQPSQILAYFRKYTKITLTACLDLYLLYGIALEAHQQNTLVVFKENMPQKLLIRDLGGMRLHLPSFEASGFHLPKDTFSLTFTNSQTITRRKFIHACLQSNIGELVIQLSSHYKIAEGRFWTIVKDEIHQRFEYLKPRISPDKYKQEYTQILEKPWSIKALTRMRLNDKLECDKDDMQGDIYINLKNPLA

NCCC[C@H](N)C(=O)O [L-ornithine]
in vitro assay, LC-MS of N-citrylornithine (m/z 307.1): FigA alone assayed with citrate and L-ornithine assay were analyzed by LC-MS
